What follows are molecules tested against T1, mouse TRPM3a2 (mTRPM3) ion channel (Mus musculus, UniProt J9SQF3) (assay: TRPM3 ion channel driven Ca2+ uptake, Fluo-4 AM assay (PS-stimulated, overexpressing flip-in HEK293 cells)). Conditions: PS (50 μM) stimulated, cpd 001-199.
T1 construct: expressed in transfected cells; host or cells: flip-in HEK293
Format: cell-based
Summary of the method: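 Flip-in HEK293 cells overexpressing mTRPM3α2, loaded with Fluo-4 AM, were added to wells with compound plus 50 μM pregnenolone sulfate in Ca2+-containing Krebs buffer and read immediately (ex 485/em 535 nm). Percent inhibition was scaled between PS-plus-vehicle and positive-control-inhibitor signals.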

T1 sequence (J9SQF3 1-1709 isoform J9SQF3-12): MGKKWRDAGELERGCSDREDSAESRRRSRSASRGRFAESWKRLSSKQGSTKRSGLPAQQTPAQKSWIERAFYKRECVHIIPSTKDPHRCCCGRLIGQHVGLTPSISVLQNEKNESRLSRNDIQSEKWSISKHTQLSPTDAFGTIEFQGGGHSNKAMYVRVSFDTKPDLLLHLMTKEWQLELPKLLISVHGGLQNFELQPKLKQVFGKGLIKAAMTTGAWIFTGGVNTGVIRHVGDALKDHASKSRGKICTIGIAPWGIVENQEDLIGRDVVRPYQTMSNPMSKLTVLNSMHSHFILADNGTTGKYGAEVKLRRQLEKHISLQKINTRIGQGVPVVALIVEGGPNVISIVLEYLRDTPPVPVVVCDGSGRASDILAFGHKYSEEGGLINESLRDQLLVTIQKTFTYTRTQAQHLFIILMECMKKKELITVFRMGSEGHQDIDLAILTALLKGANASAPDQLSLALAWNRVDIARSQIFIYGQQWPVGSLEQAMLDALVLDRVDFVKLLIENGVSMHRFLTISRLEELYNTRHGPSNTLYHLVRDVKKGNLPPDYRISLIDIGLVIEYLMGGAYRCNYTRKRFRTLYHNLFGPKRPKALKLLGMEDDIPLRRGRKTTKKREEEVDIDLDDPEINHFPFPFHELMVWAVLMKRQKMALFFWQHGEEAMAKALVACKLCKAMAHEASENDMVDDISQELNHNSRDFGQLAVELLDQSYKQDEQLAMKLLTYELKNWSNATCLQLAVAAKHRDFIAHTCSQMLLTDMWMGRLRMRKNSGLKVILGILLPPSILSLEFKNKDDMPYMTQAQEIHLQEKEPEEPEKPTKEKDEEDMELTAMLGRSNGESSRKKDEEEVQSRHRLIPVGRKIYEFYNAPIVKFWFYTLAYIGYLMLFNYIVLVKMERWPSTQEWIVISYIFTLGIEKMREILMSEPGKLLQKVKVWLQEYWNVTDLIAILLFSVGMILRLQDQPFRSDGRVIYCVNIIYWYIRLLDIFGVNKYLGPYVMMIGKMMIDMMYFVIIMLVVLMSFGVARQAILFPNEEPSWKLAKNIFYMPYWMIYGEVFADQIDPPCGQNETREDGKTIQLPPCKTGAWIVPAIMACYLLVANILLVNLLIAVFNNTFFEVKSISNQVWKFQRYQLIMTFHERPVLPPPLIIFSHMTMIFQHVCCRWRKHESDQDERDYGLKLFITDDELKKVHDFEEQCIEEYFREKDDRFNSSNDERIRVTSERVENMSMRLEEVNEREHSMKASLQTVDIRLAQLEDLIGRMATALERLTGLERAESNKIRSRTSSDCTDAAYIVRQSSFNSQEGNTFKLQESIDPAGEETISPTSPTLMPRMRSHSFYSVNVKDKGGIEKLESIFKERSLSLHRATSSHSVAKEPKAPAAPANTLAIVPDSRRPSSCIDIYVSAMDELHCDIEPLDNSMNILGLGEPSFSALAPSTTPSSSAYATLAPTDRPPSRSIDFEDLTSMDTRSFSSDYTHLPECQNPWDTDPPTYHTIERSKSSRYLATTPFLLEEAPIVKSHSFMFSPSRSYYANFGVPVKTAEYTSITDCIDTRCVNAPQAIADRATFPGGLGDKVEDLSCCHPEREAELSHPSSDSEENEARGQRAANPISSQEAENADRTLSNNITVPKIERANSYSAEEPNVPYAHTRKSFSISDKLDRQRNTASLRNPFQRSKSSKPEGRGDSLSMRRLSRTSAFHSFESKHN

SMILES | IC50 [nM]
Cc1oc2ccc(OCc3ccoc3)cc2c1C(=O)O [cpd 001, 5-(furan-3-ylmethoxy)-2-methylbenzofuran-3-carboxylic acid] | 1000 to 20000
Cc1oc2ccc(OCc3cnco3)cc2c1C(=O)O [cpd 002, 2-methyl-5-(oxazol-5-ylmethoxy)benzofuran-3-carboxylic acid] | ≥ 20000
Cc1oc2ccc(OCc3ccccn3)cc2c1C(=O)O [cpd 005, 2-methyl-5-(pyridin-2-ylmethoxy)benzofuran-3-carboxylic acid] | 1000 to 20000
Cc1oc2ccc(OCc3cccnc3)cc2c1C(=O)O [cpd 006, 2-methyl-5-(pyridin-3-ylmethoxy)benzofuran-3-carboxylic acid] | 1000 to 20000
Cc1oc2ccc(OCc3cccnn3)cc2c1C(=O)O [cpd 007, 2-methyl-5-(pyridazin-3-ylmethoxy)benzofuran-3-carboxylic acid] | 1000 to 20000
Cc1oc2ccc(OCc3ccn(C)n3)cc2c1C(=O)O [cpd 009, 2-methyl-5-((1-methyl-1H-pyrazol-3-yl)methoxy)benzofuran-3-carboxylic acid] | 1000 to 20000
Cc1oc2ccc(OCc3cnn(C)c3)cc2c1C(=O)O [cpd 010, 2-methyl-5-((1-methyl-1H-pyrazol-4-yl)methoxy)benzofuran-3-carboxylic acid] | 1000 to 20000
Cc1oc2ccc(OCc3ccsc3)cc2c1C(=O)O [cpd 011, 2-methyl-5-(thiophen-3-ylmethoxy)benzofuran-3-carboxylic acid] | 1000 to 20000
Cc1oc2ccc(OCc3cccs3)cc2c1C(=O)O [cpd 012, 2-methyl-5-(thiophen-2-ylmethoxy)benzofuran-3-carboxylic acid] | 1000 to 20000
Cc1oc2ccc(OCc3nccs3)cc2c1C(=O)O [cpd 013, 2-methyl-5-(thiazol-2-ylmethoxy)benzofuran-3-carboxylic acid] | 1000 to 20000
Cc1oc2ccc(OCc3cncs3)cc2c1C(=O)O [cpd 014, 2-methyl-5-(thiazol-5-ylmethoxy)benzofuran-3-carboxylic acid] | 1000 to 20000
Cc1oc2ccc(OCC3CCOCC3)cc2c1C(=O)O [cpd 015, 2-methyl-5-((tetrahydro-2H-pyran-4-yl)methoxy)benzofuran-3-carboxylic acid] | 1000 to 20000
Cc1oc2ccc(OCc3ccc(C(F)(F)F)o3)cc2c1C(=O)O [cpd 018, 2-methyl-5-((5-(trifluoromethyl)furan-2-yl)methoxy)benzofuran-3-carboxylic acid] | 1000 to 20000
Cc1oc2ccc(OCc3cnco3)cc2c1C(=O)N[C@H]1CCNC1 [cpd 020, (S)-2-methyl-5-(oxazol-5-ylmethoxy)-N-(pyrrolidin-3-yl)benzofuran-3-carboxamide] | 1000 to 20000
Cc1oc2ccc(OCc3ccncc3)cc2c1C(=O)N[C@H]1CCNC1 [cpd 021, (S)-2-methyl-5-(pyridin-4-ylmethoxy)-N-(pyrrolidin-3-yl)benzofuran-3-carboxamide] | 1000 to 20000
Cc1oc2ccc(OCc3ccn(C)n3)cc2c1C(=O)N[C@H]1CCNC1 [cpd 023, (S)-2-methyl-5-((1-methyl-1H-pyrazol-3-yl)methoxy)-N-(pyrrolidin-3-yl)benzofuran-3-carboxamide] | 1000 to 20000

Next, values leading:

IC50 [nM] | SMILES
1000 to 20000 | Cc1oc2ccc(OCc3cnccn3)cc2c1C(=O)NC1CCNC1=O (centres unmarked) [cpd 031, 2-methyl-N-(2-oxopyrrolidin-3-yl)-5-(pyrazin-2-ylmethoxy)benzofuran-3-carboxamide]
1000 to 20000 | Cc1oc2ccc(OCc3cncnc3)cc2c1C(=O)NC1CCNC1=O (centres unmarked) [cpd 032, 2-methyl-N-(2-oxopyrrolidin-3-yl)-5-(pyrimidin-5-ylmethoxy)benzofuran-3-carboxamide]
1000 to 20000 | Cc1ccncc1COc1ccc2oc(C)c(C(=O)NC3CCOC3)c2c1 (centres unmarked) [cpd 034, 2-methyl-5-((4-methylpyridin-3-yl)methoxy)-N-(tetrahydrofuran-3-yl)benzofuran-3-carboxamide]
1000 to 20000 | Cc1ccncc1COc1ccc2oc(C)c(C(=O)NC3CCNC3=O)c2c1 (centres unmarked) [cpd 037, 2-methyl-5-((4-methylpyridin-3-yl)methoxy)-N-(2-oxopyrrolidin-3-yl)benzofuran-3-carboxamide]
1000 to 20000 | Cc1oc2ccc(OCc3ccccn3)cc2c1C(=O)NC1CCN(C)CC1 [cpd 039, 2-methyl-N-(1-methylpiperidin-4-yl)-5-(pyridin-2-ylmethoxy)benzofuran-3-carboxamide]
1000 to 20000 | Cc1ccc(COc2ccc3oc(C)c(C(=O)NC4CCNC4=O)c3c2)c(C)n1 (centres unmarked) [cpd 044, 5-((2,6-dimethylpyridin-3-yl)methoxy)-2-methyl-N-(2-oxopyrrolidin-3-yl)benzofuran-3-carboxamide]
1000 to 20000 | Cc1oc2ccc(OC(C)c3ccncc3)cc2c1C(=O)NC1CCN(C)CC1 (centres unmarked) [cpd 045, 2-methyl-N-(1-methylpiperidin-4-yl)-5-(1-(pyridin-4-yl)ethoxy)benzofuran-3-carboxamide]
≤ 1000 | Cc1oc2ccc(OCc3nccs3)cc2c1C(=O)NC1CCNCC1(F)F (centres unmarked) [cpd 050, N-(3,3-difluoropiperidin-4-yl)-2-methyl-5-(thiazol-2-ylmethoxy)benzofuran-3-carboxamide]
1000 to 20000 | Cc1ccncc1COc1ccc2oc(C)c(C(=O)NC3(CO)CCOCC3)c2c1 [cpd 052, N-(4-(hydroxymethyl)tetrahydro-2H-pyran-4-yl)-2-methyl-5-((4-methylpyridin-3-yl)methoxy)-benzofuran-3-carboxamide]
1000 to 20000 | Cc1cccnc1COc1ccc2oc(C)c(C(=O)NC3CCNCC3(F)F)c2c1 (centres unmarked) [cpd 053, N-(3,3-difluoropiperidin-4-yl)-2-methyl-5-((3-methylpyridin-2-yl)methoxy)benzofuran-3-carboxamide]
1000 to 20000 | Cc1oc2ccc(OCc3nccc4ccccc34)cc2c1C(=O)NC1CCN(C)CC1 [cpd 059, 5-(isoquinolin-1-ylmethoxy)-2-methyl-N-(1-methylpiperidin-4-yl)benzofuran-3-carboxamide]
1000 to 20000 | Cc1oc2ccc(OCc3cccc4cnccc34)cc2c1C(=O)NC1CCN(C)CC1 [cpd 060, 5-(isoquinolin-5-ylmethoxy)-2-methyl-N-(1-methylpiperidin-4-yl)benzofuran-3-carboxamide]
≤ 1000 | COc1ncccc1COc1ccc2oc(C)c(C(=O)NC3CCNCC3(F)F)c2c1 (centres unmarked) [cpd 062, N-(3,3-difluoropiperidin-4-yl)-5-((2-methoxypyridin-3-yl)methoxy)-2-methylbenzofuran-3-carboxamide]
1000 to 20000 | Cc1oc2ccc(OCc3cccc(C(F)(F)F)n3)cc2c1C(=O)NC1CCNC1=O (centres unmarked) [cpd 065, 2-methyl-N-(2-oxopyrrolidin-3-yl)-5-((6-(trifluoromethyl)pyridin-2-yl)methoxy)benzofuran-3-carboxamide]
1000 to 20000 | Cc1oc2ccc(OCc3ccc(C(F)(F)F)nc3)cc2c1C(=O)NC1CCNC1=O (centres unmarked) [cpd 066, 2-methyl-N-(2-oxopyrrolidin-3-yl)-5-((6-(trifluoromethyl)pyridin-3-yl)methoxy)benzofuran-3-carboxamide]
1000 to 20000 | Cc1oc2ccc(OCc3ccc(C(F)(F)F)o3)cc2c1C(=O)NC1CCN(C)CC1 [cpd 069, 2-methyl-N-(1-methylpiperidin-4-yl)-5-((5-(trifluoromethyl)furan-2-yl)methoxy)benzofuran-3-carboxamide]
1000 to 20000 | Cc1cncc(COc2ccc3oc(C)c(C(=O)N[C@H]4CCN(C(=O)OC(C)(C)C)C4)c3c2)c1 [cpd 073, tert-butyl (S)-3-(2-methyl-5-((5-methylpyridin-3-yl)methoxy)benzofuran-3-carboxamido)pyrrolidine-1-carboxylate]
≤ 1000 | Cc1oc2ccc(OCc3cccnc3C(F)(F)F)cc2c1C(=O)NC1CCNCC1(F)F (centres unmarked) [cpd 074, N-(3,3-difluoropiperidin-4-yl)-2-methyl-5-((2-(trifluoromethyl)pyridin-3-yl)methoxy)benzofuran-3-carboxamide]
1000 to 20000 | Cc1oc2ccc(OCc3ncccc3C(F)(F)F)cc2c1C(=O)NC1CCNCC1(F)F (centres unmarked) [cpd 076, N-(3,3-difluoropiperidin-4-yl)-2-methyl-5-((3-(trifluoromethyl)pyridin-2-yl)methoxy)benzofuran-3-carboxamide]
1000 to 20000 | Cc1oc2ccc(OCc3cccc(N(C)C)n3)cc2c1C(=O)NC1CCN(C(=O)OC(C)(C)C)CC1(F)F (centres unmarked) [cpd 078, tert-butyl 4-(5-((6-(dimethylamino)pyridin-2-yl)methoxy)-2-methylbenzofuran-3-carboxamido)-3,3-difluoropiperidine-1-carboxylate]
1000 to 20000 | CCOC(=O)c1c(C)oc2ccc(OCC3CCN(C(=O)OC(C)(C)C)C3)cc12 (centres unmarked) [cpd 079, tert-butyl 3-(((3-(ethoxycarbonyl)-2-methylbenzofuran-5-yl)oxy)methyl)pyrrolidine-1-carboxylate]
1000 to 20000 | Cc1oc2ccc(OCc3nccs3)cc2c1C(=O)NC1CCN(C(=O)OC(C)(C)C)CC1(F)F (centres unmarked) [cpd 087, tert-butyl 3,3-difluoro-4-(2-methyl-5-(thiazol-2-ylmethoxy)benzofuran-3-carboxamido)piperidine-1-carboxylate]
1000 to 20000 | Cc1cccnc1COc1ccc2oc(C)c(C(=O)NC3CCN(C(=O)OC(C)(C)C)CC3(F)F)c2c1 (centres unmarked) [cpd 088, tert-butyl 3,3-difluoro-4-(2-methyl-5-((3-methylpyridin-2-yl)methoxy)benzofuran-3-carbox-amido)piperidine-1-carboxylate]
1000 to 20000 | COc1ncccc1COc1ccc2oc(C)c(C(=O)NC3CCN(C(=O)OC(C)(C)C)CC3(F)F)c2c1 (centres unmarked) [cpd 089, tert-butyl 3,3-difluoro-4-(5-((2-methoxypyridin-3-yl)methoxy)-2-methylbenzofuran-3-carbox-amido)piperidine-1-carboxylate]

Same assay, conditions: PS (50 μM) stimulated, cpds. 500-599

IC50 [nM] | SMILES
1000 to 20000 | Cc1ncsc1COc1ccc2oc(C)c(C(=O)N(C)C3(C#N)COC3)c2c1 [compound 599, N-(3-cyanooxetan-3-yl)-N,2-dimethyl-5-((4-methylthiazol-5-yl)methoxy)benzofuran-3-carboxamide]

Reference: patent publication US20240336602A1 (Katholieke Universiteit Leuven, priority 2020, published 2024)
